Assay results as given in patent US4874773A, “3-Aminocarbonyl-1,4-dihydropyridine-5-carboxylic acid compounds, and pharmaceutical composition containing the same” (priority 1985, dated 1989).
Entries after “also recorded” stand apart in the source; their conditions may differ. Where two headings read alike, the source gives them in different places.

Tests used:
[1] = tested on: isolated aorta; assay: Experiment 3 Relaxing activity on the isolated aorta (30 mM KCl contracted); set-up: species or system Japanese white rabbit
Method: Japanese white rabbit (weighing 2.3-2.7 kg) was sacrificed by bleeding from common carotid artery. Immediately, the aorta was isolated and cut into a sprial strip. The strip preparation was vertically suspended under a resting tension of 2.0 g in a tissue bath containing 20 ml of modified Ringer solution while bubbling with a mixture of 95% O2 +5% CO2 by connecting one end of the strip to a lever of the above-mentioned FD pick up. The aortic strip was contracted with 30 mM KCl. When the contraction became constant, the test compound was accumulatively administered, and the relaxing effect was measured. After the final treatment, 10^-4T M papaverine was administered and the maximum relaxation obtained thereby was taken as 100%. In comparison with the maximum relaxation obtained by papaverine, the rate of relaxation by the test compounds was evaluated, and the concentration of the test compounds for obtaining 50% relaxation (EC50) was calculated.
The test compound was dissolved in ethanol, and the solution was diluted in 100 to 1×10^4 folds with a nutrient solution, and the diluted solution was administered.

[2] = Experiment 4-2 Acute toxicity, mice; conditions: mouse, in vivo, po, 4 week age, 7 days
From the text: (§1) Wistar male and female rats (4 week age) and ddy male and female mice (4 week age) were used. The compounds of Example Nos. 82 and 83 were each orally administered to […].

[3] = tested on: isolated heart; assay: Experiment 2-2 Activity onto the isolated heart (with duration); set-up: species or system Japanese white rabbit; conditions: 3 μg/heart
Method: Japanese white rabbit (weighing 2.2-2.5 kg) was anesthetized by introvenous injection of nembutal (20 mg/kg) and then sacrificed by bleeding from common carotid artery. […] There were measured the perfusion volume with a drop-counting meter (ET-600G type, manufactured by Nippon Koden K.K.) and the heart pulse and the contractility via a force-displacement transducer (FD pick up, SB-IT type, manufactured by Nippon Koden K.K.) (for measuring heart pulse, an instant pulse meter (AT-601G type, minufactured by Nippon Koden K.K.) being further used).
The test compounds were dissolved in ethanol, and the solution was diluted in 100-fold with purified water, and the diluted solution was administered in an amount of 0.1 ml/heart (i.e. 3 μg/heart).
The activity was measured in the same manner as described in Experiment 2-1 except that in some test compounds, the dose was in 1 μg/heart. Besides, the duration of the activity was evaluated by counting the time until the coronary perfusion volume became to the initial level before the administration of the test compound.

[4] = tested on: Spontaneously hypertensive male rats; assay: Experiment 1-2 Hypotensive activity (oral, 8 hours); assay type: in vivo, rat
Method: Spontaneously hypertensive male rats (13-15 week age, one group: 3 rats) were used. […] The rats were fixed in a Howlman cage without fasting, and the femoral arterial pressure was measured by a direct method without anesthesia with a cannula which was previously inserted into the femoral artery of the animal, via a pressure transducer (MPU-0.5, manufactured by Nippon Koden K.K.). The test compounds were orally administered in the form of a suspension in 0.5% methyl cellulose solution in a dose of 10 mg/kg (in some compounds, 3 mg/kg). In the control group, only 0.5% methyl cellulose solution was administered likewise. The blood pressure was measured for 5 hours after the administration of test compounds.
The hypotensive activity was measured in the same manner as described in Experiment 1-1 except that the rats were used in 3-5 rats per each group, and the test compounds were administered in a dose of 1 mg/kg (some compounds, 3 mg/kg), and the blood pressure was measured for 8 hours after the administration of test compounds.

[5] = Experiment 4-2 Acute toxicity, rats; conditions: rat, in vivo, po, 4 week age, 7 days
From the text: as §1

**Q.** With `CCCCCCCCOC(=O)C1=C(C)NC(C)=C(C(=O)NC2CC2)C1c1ccccc1[N+](=O)[O-]` (stereo not drawn) [Example 82, n-octyl 2,6-dimethyl-3-cyclopropylaminocarbonyl-4-(o-nitrophenyl)-1,4-dihydropyridine-5-carboxylate] as the compound, how does the EC50 ([1]; Oryctolagus cuniculus, 30 mM KCl contraction, maximum relaxation by papaverine = 100%, read-out: EC50 (concentration for 50% relaxation)) read?
**A.** Its EC50 is 440 nM.

**Q.** What about the “relaxing / vasodilating activity on isolated aorta (in words)” value ([1]; Table 8, comparison with nifedipine and nicardipine hydrochloride, etc. where stated) of the same compound?
**A.** Its value is “somewhat weak vasodilating activity”.

**Q.** And the LD50 at 168 h ([2]; female mice)?
**A.** The LD50 at 168 h was 1140 mg/kg.

**Q.** What about the LD50 at 168 h ([2]; male mice) of the same compound?
**A.** Its LD50 at 168 h is 1280 mg/kg.

**Q.** And the “Coronary perfusion Duration” value ([3]; time until perfusion volume returned to initial level)?
**A.** The value was > 120 min.

**Q.** And the activation at 3 µg/heart ([3]; Oryctolagus cuniculus, read-out: Coronary perfusion Increase)?
**A.** The activation at 3 µg/heart was 39%.

**Q.** What about the inhibition at 3 µg/heart ([3]; Oryctolagus cuniculus, read-out: Inhibitory rate of systole) of the same compound?
**A.** Its inhibition at 3 µg/heart is 30%.

**Q.** What about the inhibition at 3 µg/heart ([3]; Oryctolagus cuniculus, read-out: Reducing rate of heart pulse) of the same compound?
**A.** The inhibition at 3 µg/heart was 25%.

**Q.** What about the Maximum hypotension ([4]; 1 mg/kg oral) of the same compound?
**A.** Its Maximum hypotension is 48 mmHg.

**Q.** And the Recovering time ([4]; 1 mg/kg oral)?
**A.** The Recovering time was > 8.0 h.

**Q.** What about the “Time for recovering 1/2 of max. hypotension” value ([4]; 1 mg/kg oral) of the same compound?
**A.** Its value is > 8.0 h.

**Q.** What about the “Time until reaching to max. hypotension” value ([4]; 1 mg/kg oral) of the same compound?
**A.** The value was 180 min.

**Q.** What about the “hypotensive activity (in words)” value ([4]; Table 5, comparison with nifedipine and nicardipine hydrochloride where stated) of the same compound?
**A.** The value was “the same or more potent hypotensive activity with longer duration; also recorded: potent hypotensive activity”.

**Q.** What about the LD50 at 168 h ([5]; female rats) of the same compound?
**A.** Its LD50 at 168 h is 50 mg/kg.

**Q.** What about the LD50 at 168 h ([5]; male rats) of the same compound?
**A.** The LD50 at 168 h was 320 mg/kg.
